# Laboratory results reported in ChEMBL document CHEMBL1125238, “A new class of calcium antagonists. Synthesis and biological activity of 11-[(omega-aminoalkanoyl)amino]-6,6a,7,8,9,10,10a,11-octahydrodibenzo [b,e]thiepin derivatives” (J Med Chem, 1991).
# Species: Rattus norvegicus
# Assay: Calcium antagonistic activity assessed against calcium-induced constriction of potassium-depolarized rat aorta.
# Type: functional
# Settings: not given
row,SMILES,pA2
1,O=C(CCCN1CCN(c2ccccc2)CC1)N[C@H]1c2ccccc2SC[C@@H]2CCCC[C@H]21.O=C(O)C(=O)O,7.68
2,O=C(CCCN1CCN(c2ccc(F)cc2)CC1)N[C@H]1c2ccccc2[S+]([O-])C[C@@H]2CCCC[C@H]21 (stereo in doubt; 48),6.48

# Same assay, conditions: Rattus norvegicus, Aorta; read-out: pA2 (converted)
row,SMILES,Kb [µM]
1,O=C(CCCCCN1CCN(c2ccccc2)CC1)N[C@H]1c2ccccc2SC[C@@H]2CCCC[C@H]21,0.0302
2,O=C(CCN1CCN(c2ccccc2)CC1)N[C@H]1c2ccccc2SC[C@@H]2CCCC[C@H]21,0.0417
3,Cc1ccc(N2CCN(CCCC(=O)N[C@H]3c4ccccc4SC[C@@H]4CCCC[C@H]43)CC2)cc1,0.0708
4,O=C(CCCN1CCN(C/C=C/c2ccccc2)CC1)N[C@H]1c2ccccc2SC[C@@H]2CCCC[C@H]21,0.0759
5,O=C(CN1CCN(c2ccccc2)CC1)N[C@H]1c2ccccc2SC[C@@H]2CCCC[C@H]21,0.105
6,O=C(CCCN1CCN(c2ccc(F)cc2)CC1)N[C@H]1c2ccccc2OC[C@@H]2CCCC[C@H]21,0.138
7,O=C(CCCN1CCN(Cc2ccc([N+](=O)[O-])cc2)CC1)N[C@H]1c2ccccc2SC[C@@H]2CCCC[C@H]21,0.0191
8,O=C(CCCN1CCN(c2ccc(F)cc2)CC1)N[C@@H]1c2ccccc2SC[C@@H]2CCCC[C@@H]21,0.0186
9,O=C(CCCN1CCN(C(c2ccccc2)c2ccccc2)CC1)N[C@H]1c2ccccc2SC[C@@H]2CCCC[C@H]21,0.0407
10,O=C(CCCN1CCN(Cc2ccccc2)CC1)N[C@H]1c2ccccc2SC[C@@H]2CCCC[C@H]21,0.0158
11,O=C(CCCN1CCN(c2ccc(O)cc2)CC1)N[C@H]1c2ccccc2SC[C@@H]2CCCC[C@H]21,0.0692
12,O=C(CCCN1CCN(c2ccc(Cl)cc2)CC1)N[C@H]1c2ccccc2SC[C@@H]2CCCC[C@H]21,0.0151
13,O=C(CCCN1CCN(c2ccc(F)cc2)CC1)N[C@H]1c2ccccc2SC[C@@H]2CCCC[C@H]21,0.00692
14,O=C(CCCN1CCN(c2ccc(F)cc2)CC1)N[C@H]1c2cc(Cl)ccc2SC[C@@H]2CCCC[C@H]21,0.0813
15,O=C(CCCN1CCN(c2ccc(F)cc2)CC1)N[C@H]1c2ccccc2SC[C@@H]2CCCC[C@@H]21,0.00708
16,O=C(CCCN1CCN(Cc2cccc(F)c2)CC1)N[C@H]1c2ccccc2SC[C@@H]2CCCC[C@H]21,0.0302
17,COc1ccccc1N1CCN(CCCC(=O)N[C@H]2c3ccccc3SC[C@@H]3CCCC[C@H]32)CC1,0.0468
18,O=C(CCCN1CCN(c2cccc3ccccc23)CC1)N[C@H]1c2ccccc2SC[C@@H]2CCCC[C@H]21,0.0575

row,SMILES,Kb [µM]
1,O=C(CCCN1CCN(Cc2ccc(F)cc2)CC1)N[C@H]1c2ccccc2SC[C@@H]2CCCC[C@H]21,0.0575
2,O=C(CCCN1CCN(C(=O)c2ccccc2)CC1)N[C@H]1c2ccccc2SC[C@@H]2CCCC[C@H]21,0.0977
3,O=C(CCCN1CCN(c2ccc(F)cc2)CC1)N[C@H]1c2cc(F)ccc2SC[C@@H]2CCCC[C@H]21,0.0776
4,O=C(CCCN1CCN(Cc2ccc(O)cc2)CC1)N[C@H]1c2ccccc2SC[C@@H]2CCCC[C@H]21,0.0708
5,O=C(CCCCN1CCN(c2ccccc2)CC1)N[C@H]1c2ccccc2SC[C@@H]2CCCC[C@H]21,0.0282
6,O=C(CCCN1CCN(c2ccc(C(F)(F)F)cc2)CC1)N[C@H]1c2ccccc2SC[C@@H]2CCCC[C@H]21,0.00891
7,CN(C(=O)CCN1CCN(c2ccccc2)CC1)[C@H]1c2ccccc2SC[C@@H]2CCCC[C@H]21,0.148
8,COc1ccc(N2CCN(CCCC(=O)N[C@H]3c4ccccc4SC[C@@H]4CCCC[C@H]43)CC2)cc1,0.0251
9,O=C(CCCN1CCN(c2cccc(F)c2)CC1)N[C@H]1c2ccccc2SC[C@@H]2CCCC[C@H]21,0.0151
10,O=C(CCCN1CCN(C2CCCCC2)CC1)N[C@H]1c2ccccc2SC[C@@H]2CCCC[C@H]21,0.0457
11,COc1ccc(CN2CCN(CCCC(=O)N[C@H]3c4ccccc4SC[C@@H]4CCCC[C@H]43)CC2)cc1,0.0562
12,COc1ccc2c(c1)[C@H](NC(=O)CCCN1CCN(c3ccc(F)cc3)CC1)[C@@H]1CCCC[C@H]1CS2,0.017
13,c1ccc(N2CCN(CCCN[C@H]3c4ccccc4SC[C@@H]4CCCC[C@H]43)CC2)cc1,0.158
14,O=C(CCCN1CCN(Cc2ccc(Cl)cc2)CC1)N[C@H]1c2ccccc2SC[C@@H]2CCCC[C@H]21,0.0269
15,O=C(CCCN1CCN(c2ccc(F)cc2)CC1)N[C@@H]1c2ccccc2SC[C@@H]2CCCC[C@H]21,0.0269
16,Cc1ccc2c(c1)[C@H](NC(=O)CCCN1CCN(c3ccc(F)cc3)CC1)[C@@H]1CCCC[C@H]1CS2,0.141
17,O=C(CCCN1CCN(CCc2ccccc2)CC1)N[C@H]1c2ccccc2SC[C@@H]2CCCC[C@H]21,0.0724
18,O=C(CCCN1CCN(c2ccc(F)cc2)CC1)N[C@H]1c2ccccc2[S+]([O-])C[C@@H]2CCCC[C@H]21 (stereo in doubt; 49),0.324
